Experimental data reported in patent US11512085B2, “Heteroaryl compound having drug activity” (SHANGHAI DUDE MEDICAL TECHNOLOGY CO., LTD, priority 2017, dated 2022).
pIC50: −log10 of the molar value. One block for each molecule: values may come before it.

Assays:
Btk = Btk (Homo sapiens, UniProt Q06187); test: Determination of Btk enzyme inhibitory activity; type: biochemical; conditions: 2 nM BTK
Description: Determination of Btk Enzyme Inhibitory Activity
Buffer solution: 50 mM Hepes pH 7.0, 0.1 mM Orthovanadate, 5 mM MgCl2, 0.01% of BSA;
1 mM TK-peptide, […], 50 nM SEB;
Pre-incubation for 15 minutes;
Reaction at 23° C. for 90 minutes;
Color Development Reaction:
Developing buffer solution: 50 mM Hepes pH8.0, 0.8 M KF, 20 mM EDTA, 0.01% BSA;
Reaction at 23° C. for 60 minutes;

[1] = Human liver microsome stability test; type: in vitro ADME; conditions: for Remaining (*NCF = 60 min): HLM 0.5, 60 min, no co-factor; for Remaining (T = 60 min): HLM 0.5, 60 min with NADPH regenerating system; for half-life at 1 µM / microsomal CLint at 1 µM / CLint scaled at 1 µM: human, liver microsomes, pH 7.4; for half-life at 1 µM: HLM 0.5 (0.5 mg protein/mL); for microsomal CLint at 1 µM / CLint scaled at 1 µM: HLM 0.5; for microsomal CLint at 1 µM: read-out: CLint(mic); for CLint scaled at 1 µM: scaled from CLint(mic)
Description: (§1) Preparation of Buffer Solution:
(§2) 1. 100 mM potassium phosphate buffer solution, pH of 7.4
(§3) Preparation of Test Compound Solution:
(§4) 1. A test compound solution (10 mM, 5 μL) was diluted with a methanol solution (495 μL), and a 100 μM solution was prepared;
(§5) 2. Preparation of a working solution: the above solution (50 μL) was diluted with the potassium phosphate buffer solution (450 μL, 100 mM) so as to obtain diluents (10 μM).
(§6) NADPH Regeneration System (Final Concentration 1 Unit/mL of Isocitrate Dehydrogenase):
(§7) 1. beta-NADP, supplier: sigma Cat. No. N0505
(§8) 3. isocitrate dehydrogenase, supplier: sigma Cat. No. 12002
(§9) Cold acetonitrile containing 100 ng/mL of tolbutamide and 100 ng/mL of labetalol serves as an internal standard
(§10) 1. a 10 μL/well of working solution was added into plates (T0, T5, T10, T20, T30, T60, NCF60) beyond the blank;
(§11) 2. a 80 μL/well of microsome solution was added, and incubation was performed at 37° C. for 10 min;
(§12) 3. a 10 μL of 100 mM phosphate buffer solution was added into each well of an NCF60 plate, the plate was placed in a warm bath at 37° C., and timing started;
(§13) 4. a 10 μL/well of NADPH regeneration system was added after preheating, and a reaction started;
(§14) 5. incubation was performed at 37° C., and timing started
(§15) 6. a 300 μL/well of stop solution was added (4° C., containing 100 ng/mL of tolbutamide and 100 ng/mL of labetalol) to end the reaction;
(§16) 7. the plate was shaken for 10 min;
(§17) 8. centrifugation was performed at 4° C. at a rotation speed of 4000 rpm; and
(§18) 9. sample LC/MS/MS detection was performed.
(§19) Data Analysis Use Equation of First Order Kinetics to Calculate t½ and Clint(Mic): […]
(§20) equation of first order kinetics: […]

LynA = LynA (Homo sapiens, UniProt P07948); test: Btk selectivity over LynA (same kinase method, Btk replaced); type: biochemical; conditions: ratio of IC50 values
Sequence of LynA (P07948 whole entry): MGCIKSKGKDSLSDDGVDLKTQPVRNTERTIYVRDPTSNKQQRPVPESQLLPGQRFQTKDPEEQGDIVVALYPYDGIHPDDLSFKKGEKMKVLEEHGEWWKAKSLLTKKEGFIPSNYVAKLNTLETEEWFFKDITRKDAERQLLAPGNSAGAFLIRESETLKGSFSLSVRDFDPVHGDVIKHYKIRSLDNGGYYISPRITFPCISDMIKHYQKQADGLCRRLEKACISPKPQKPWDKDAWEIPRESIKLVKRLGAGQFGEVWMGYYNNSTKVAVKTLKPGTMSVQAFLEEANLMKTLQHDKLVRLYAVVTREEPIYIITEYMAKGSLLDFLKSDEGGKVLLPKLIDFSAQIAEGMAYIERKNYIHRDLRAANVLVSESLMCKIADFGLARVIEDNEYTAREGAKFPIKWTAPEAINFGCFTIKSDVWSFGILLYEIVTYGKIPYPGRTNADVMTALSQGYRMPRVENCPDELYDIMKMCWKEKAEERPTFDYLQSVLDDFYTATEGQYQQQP
Description: (§21) Other kinases (e.g., inhibitory activity of Lck and LynA is determined by replacing the Btk with various kinases and performing operations the same as that in the above method).

Lck = Lck (Homo sapiens, UniProt P06239); test: Btk selectivity over Lck (same kinase method, Btk replaced); type: biochemical; conditions: ratio of IC50 values
Sequence of Lck (P06239 whole entry): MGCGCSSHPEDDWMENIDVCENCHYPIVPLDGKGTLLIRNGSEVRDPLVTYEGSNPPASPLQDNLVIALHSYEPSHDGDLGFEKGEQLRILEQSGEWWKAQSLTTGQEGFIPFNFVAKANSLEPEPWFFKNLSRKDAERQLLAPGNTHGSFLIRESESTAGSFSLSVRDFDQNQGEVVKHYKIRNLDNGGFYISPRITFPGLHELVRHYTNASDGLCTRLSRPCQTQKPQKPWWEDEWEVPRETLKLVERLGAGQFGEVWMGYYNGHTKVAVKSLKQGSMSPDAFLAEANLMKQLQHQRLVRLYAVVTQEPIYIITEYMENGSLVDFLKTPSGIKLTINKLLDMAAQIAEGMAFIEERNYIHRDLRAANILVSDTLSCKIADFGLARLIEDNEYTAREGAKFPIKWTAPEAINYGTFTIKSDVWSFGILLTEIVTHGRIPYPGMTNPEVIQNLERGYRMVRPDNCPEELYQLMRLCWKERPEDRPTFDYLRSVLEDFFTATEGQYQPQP
Description: as §21

[2] = Rat liver microsome stability test; type: in vitro ADME; conditions: for Remaining (*NCF = 60 min): RLM 0.5, 60 min, no co-factor; for Remaining (T = 60 min): RLM 0.5, 60 min with NADPH regenerating system; for half-life at 1 µM / microsomal CLint at 1 µM / CLint scaled at 1 µM: rat, liver microsomes, pH 7.4; for half-life at 1 µM: RLM 0.5 (0.5 mg protein/mL); for microsomal CLint at 1 µM / CLint scaled at 1 µM: RLM 0.5; for microsomal CLint at 1 µM: read-out: CLint(mic); for CLint scaled at 1 µM: scaled from CLint(mic)
Description: as §1, §2, §3, §4, §5, §6, §7, §8, §9, §10, §11, §12, §13, §14, §15, §16, §17, §18, §19, §20

[3] = People; FDA data; cited from earlier work

Sequence of Btk (Q06187 whole entry): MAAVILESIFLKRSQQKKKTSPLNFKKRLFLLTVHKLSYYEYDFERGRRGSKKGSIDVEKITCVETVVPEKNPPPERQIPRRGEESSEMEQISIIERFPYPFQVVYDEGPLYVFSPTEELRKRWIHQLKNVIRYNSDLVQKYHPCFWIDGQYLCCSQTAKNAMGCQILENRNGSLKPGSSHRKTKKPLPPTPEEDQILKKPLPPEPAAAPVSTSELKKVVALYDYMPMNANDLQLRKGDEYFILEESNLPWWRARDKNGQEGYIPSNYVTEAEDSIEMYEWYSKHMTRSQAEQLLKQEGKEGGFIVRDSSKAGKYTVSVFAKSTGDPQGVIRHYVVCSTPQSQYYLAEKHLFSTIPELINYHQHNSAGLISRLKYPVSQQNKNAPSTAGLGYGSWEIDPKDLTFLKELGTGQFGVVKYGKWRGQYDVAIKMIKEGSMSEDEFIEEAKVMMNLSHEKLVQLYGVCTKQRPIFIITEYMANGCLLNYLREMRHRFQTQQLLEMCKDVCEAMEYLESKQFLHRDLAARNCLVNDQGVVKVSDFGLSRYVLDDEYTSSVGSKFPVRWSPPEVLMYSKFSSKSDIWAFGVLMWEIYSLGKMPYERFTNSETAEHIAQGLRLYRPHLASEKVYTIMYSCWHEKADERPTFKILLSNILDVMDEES

SMILES: C=CC(=O)N1CCCC(n2nc(/C=C/c3ccccn3)c3c(N)ncnc32)C1 (stereo not shown) [Embodiment 13, 1-(3-(4-amino-3-(2-2-pyridyl)vinyl-1H-pyrazolo[3,4-D]pyrimidine-1-yl)-piperidyl)-2-propylene-1-one]
Remaining (*NCF = 60 min) [1]: 93.1%
Remaining (T = 60 min) [1]: 14.0%
half-life at 1 µM [1]: 20.5 min
microsomal CLint at 1 µM [1]: 67.6 µL/min/mg
CLint scaled at 1 µM [1]: 60.8 mL/min/kg
pIC50 (Btk): 9.34
LynA[IC50]/Btk[IC50] (LynA): 507
Lck[IC50]/Btk[IC50] (Lck): 420
Remaining (*NCF = 60 min) [2]: 94.7%
Remaining (T = 60 min) [2]: 5.0%
half-life at 1 µM [2]: 13.7 min
microsomal CLint at 1 µM [2]: 101 µL/min/mg
CLint scaled at 1 µM [2]: 182 mL/min/kg

SMILES: C=CC(=O)N1CCC[C@@H](n2nc(-c3ccc(Oc4ccccc4)cc3)c3c(N)ncnc32)C1 [Ibrutinib]
bioavailability [3]: 2.9%

SMILES: C=CC(=O)N1CCC[C@@H](n2nc(/C=C/c3cccc(Cl)c3)c3c(N)ncnc32)C1 [Embodiment 15, 1-(3-(4-amino-3-(3-chlorophenylvinyl)-1H-pyrazolo[3,4-D]pyrimidine-1-yl)-piperidyl)-2-propylene-1-one]
pIC50 (Btk): 8.16

SMILES: C=CC(=O)NN1CCCC(n2c(=O)n(-c3ccc(Oc4ccccc4)cc3)c3c(N)ncnc32)C1 (stereo not shown) [Embodiment 29]
pIC50 (Btk): < 6.00

SMILES: C=CC(=O)N(C)N1CCCC(n2nc(-c3ccc(Oc4ccccc4)cc3)c3c(N)ncnc32)C1 (stereo not shown) [Embodiment 8]
Remaining (*NCF = 60 min) [1]: 105.8%
Remaining (T = 60 min) [1]: 0.0%
half-life at 1 µM [1]: 3.7 min
microsomal CLint at 1 µM [1]: 374 µL/min/mg
CLint scaled at 1 µM [1]: 336 mL/min/kg
LynA[IC50]/Btk[IC50] (LynA): 62.5
Lck[IC50]/Btk[IC50] (Lck): 139
Remaining (*NCF = 60 min) [2]: 111.2%
Remaining (T = 60 min) [2]: 0.2%
half-life at 1 µM [2]: 3.8 min
microsomal CLint at 1 µM [2]: 366 µL/min/mg
CLint scaled at 1 µM [2]: 658 mL/min/kg

SMILES: C=CC(=O)N(C)N1CCC[C@@H](n2nc(-c3ccc(Oc4ccccc4)cc3)c3c(N)ncnc32)C1 [Embodiment 8]
pIC50 (Btk): 9.19

SMILES: C=CC(=O)N1CCC[C@@H](n2nc(/C=C/c3ccc(Cl)cc3)c3c(N)ncnc32)C1 [Embodiment 14, 1-(3-(4-amino-3-(4-chlorophenylvinyl)-1H-pyrazolo[3,4-D]pyrimidine-1-yl)-piperidyl)-2-propylene-1-one]
pIC50 (Btk): 8.24

SMILES: C=CC(=O)N1CCC[C@@H](n2nc(-c3ccc(-c4noc(C)n4)cc3)c3c(N)ncnc32)C1 [Embodiment 22, 1-(3-(4-amino-3-(4-(5-methyl-1,2,4-oxadiazole-3-yl)phenyl)-1H-pyrazolo[3,4-D]pyrimidine-1-yl)-1-piperidyl)-2-propylene-1-one]
pIC50 (Btk): 6.84

SMILES: C=CC(=O)N1CCCC(n2nc(/C=C/c3ccccc3Cl)c3c(N)ncnc32)C1 (stereo not shown) [Embodiment 16, 1-(3-(4-amino-3-(2-chlorophenylvinyl)-1H-pyrazolo[3,4-D]pyrimidine-1-yl)-piperidyl)-2-propylene-1-one]
pIC50 (Btk): 7.78

SMILES: C=CC(=O)N1CCC[C@@H](n2nc(-c3ccc(-c4noc(CCCCl)n4)cc3)c3c(N)ncnc32)C1 [Embodiment 24, 1-(3-(4-amino-3-(4-(5-(3-chloropropyl)-1,2,4-oxadiazole-3-yl)phenyl)-1H-pyrazolo[3,4-D]pyrimidine-1-yl)-1-piperidyl)-2-propylene-1-one]
pIC50 (Btk): 7.11

Next, values leading:

pIC50 (Btk): < 6.00
SMILES: C=CC(=O)N1CCC[C@@H](n2c(=O)n(-c3ccc(-c4noc(CCCCl)n4)cc3)c3c(N)ncnc32)C1 [Embodiment 36, 9-(1-allylpropionylpiperidine-3-yl)-6-amino-7-(4-(5-(3-chloropropyl)-1,2,4-oxadiazole-3-yl)phenyl)-7,9-dihydro-8H-purine-8-one]

pIC50 (Btk): 8.29
SMILES: C=CC(=O)NN1CCCC(c2nc(-c3ccc(Oc4ccccc4)cc3)c3c(N)nccn23)C1 (stereo not shown) [Embodiment 51, N-(3-(8-amino-1-(4-phenoxyphenyl)imidazo[1,5-a]pyrazine-3-yl)-1-piperidyl) acrylamide]

pIC50 (Btk): 6.75
SMILES: C=CC(=O)N1CCCC(n2c(=O)n(-c3ccc(-c4noc(C=C)n4)cc3)c3c(N)ncnc32)C1 (stereo not shown) [Embodiment 35, 9-(1-allylpropionylpiperidine-3-yl)-6-amino-7-(4-(5-vinyl-1,2,4-oxadiazole-3-yl)phenyl)-7,9-dihydro-8H-purine-8-one]

pIC50 (Btk): 9.05
SMILES: C=CC(=O)NN1CCC[C@@H](n2nc(-c3ccc(Oc4ccccc4F)cc3)c3c(N)ncnc32)C1 [Embodiment 42]

pIC50 (Btk): 6.68
SMILES: C=CC(=O)N1CCCC(n2c(=O)n(-c3ccc(-c4noc(C)n4)cc3)c3c(N)ncnc32)C1 (stereo not shown) [Embodiment 34, 9-(1-allylpropionylpiperidine-3-yl)-6-amino-7-(4-(5-methyl-1,2,4-oxadiazole-3-yl)phenyl)-7,9-dihydro-8H-purine-8-one]

pIC50 (Btk): 7.64
SMILES: C=CC(=O)NN1CCC[C@@H](n2c(=O)n(-c3ccc(C(=O)Nc4ccccn4)cc3)c3c(N)ncnc32)C1 [Embodiment 40, 4-(9-(1-acrylamidepiperidine-3-yl)-6-amino-8-oxo-8,9-dihydro-7H-purine-7-yl)-N-(pyridin-2-yl)benzamide]

pIC50 (Btk): 7.11
SMILES: C=CC(=O)N(C)N1CCC[C@@H](n2c(=O)n(-c3ccc(Oc4ccccc4)cc3)c3c(N)ncnc32)C1 [Embodiment 30]
